The assay deals with PMA-induced release of endogenous TNFα from human monocytic U-937 cells. As to the kind of experiment: ELISA-based TNFα release assay, PMA-induced, U-937 cells. In kind it is cell-based. The note with it: U-937, 1 h, PMA 25 ng/ml, Batimastat at 10 μM. On the procedure:
In brief, on day 1, Nunc black MaxiSorp® 96-well plates (Thermo Fisher Scientific, USA) were coated overnight with 100 μl per well of mouse anti-human TNFα capture antibody (provided as part of the DuoSet ELISA kit) at 4 μg/ml TBS at 4° C. On day 2, the capture antibody solution was removed and MaxiSorp® plates were blocked with 300 μl per well of TBS, 1% BSA at room temperature for 1-2 hours. Meanwhile, 80,000 U-937 (European Collection of Authenticated Cell Cultures, UK) cells in 80 μl of normal growth medium were seeded in each well of Greiner CELLSTAR V-bottom 96-well plates (Thermo Fisher Scientific, USA) and pre-incubated with 20 μl per well of standard growth medium supplemented with Batimastat (BB94, Abcam, UK) at 50 μM as positive control (for a final concentration of 10 μM in the resulting 100 μl sample volume), mouse IgG antibody (Thermo Fisher Scientific, USA) at 5 μg/ml as isotype control (for a final concentration of 1 μg/ml in the resulting 100 μl sample volume) or antibodies of the invention at 5 μg/ml (for a final concentration of 1 μg/ml in the resulting 100 μl sample volume) at 37° C., 5% CO2 for 30 minutes. […] Using an infinite M1000 (Tecan Group, Switzerland) microplate reader, the fluorescence of each well was collected at an excitation wavelength of 435 nm and an emission wavelength of 555 nm. […]
For orientation: An ELISA detects its analyte on a solid surface through an enzyme-linked reagent.

As a reminder, the inhibition is the drop in the measured response relative to a control, in per cent. For the molecule `CNC(=O)[C@H](Cc1ccccc1)NC(=O)[C@H](CC(C)C)[C@H](CSc1cccs1)C(=O)NO` [Batimastat], the inhibition at 10 µM by setting is: (murine (m) and chimeric (ch) antibodies and IgG at 3 μg/ml) 98.7%; (recombinant murine antibodies and IgG at 1 μg/ml) 100%.
